The results in this text go back to patent publication US8648215B2, “Spiroenone and uses thereof” (Joben Bio-Medical Co., Ltd., priority 2012, dated 2014).

The test relates to MCF-7 cells. Description: MTT assay for antiproliferation, MCF-7 cells. It counts as cell-based. Conditions: Homo sapiens, MCF7, 24 h, read-out: percentage of inhibition. As to the method: Cell Lines and Culture. MCF-7, T-47D, and H184B5F5/M10 cells were cultured with 5% CO2 atmosphere at 37° C.; MDA-MB-231 cells were cultured without CO2 at 37° C. The MCF-7 cells were cultured in MEM containing 10% heat-inactivated FBS, 100 units/mL penicillin, 100 μg/mL streptomycin, and 1 mM sodium pyruvate. The T-47D cells were maintained in RPMI-1640 medium containing 10% heat inactivated FBS, 100 units/mL penicillin, and 100 μg/mL streptomycin. […]
Assay for Antiproliferation. To determine the antiproliferative effect, MCF-7, T-47D, MDA-MB-231, or H184B5F5/M10 cells were assessed using the MTT assay as previously reported (Ho, C. Y.; Kim, C. F.; Leung, K. N.; Fung, K. P.; Tse, T. F.; Chan, H.; Lau, C. B. Differential anti-tumor activity of Coriolus versicolor (Yunzhi) extract through p53- and/or Bcl-2-dependent apoptotic pathway in human breast cancer cells. Cancer Biol. Ther. 2005, 4, e11-e17). […] The absorbance at 570 nm was measured, and the viability of cells was calculated using the following equation: relative cell number (%)=(average absorbance of treated wells)×100/(average absorbance of blank vehicle wells).

The structures appear in SMILES notation.

As to `COC1=C(C)CC2(CC1)C(C)=CC(=O)C=C2C` [compound 3, coixspiroenone], the inhibition at 50 µM was found to be 19.2%.

The term inhibition denotes how much of the control response was suppressed.
